Source: patent publication US20090124607A1, “Novel Bicyclic Sulfonamides for Use as Glucocorticoid Receptor Modulators in the Treatment of Inflammatory Diseases” (priority 2005, published 2009)

These compounds were tested against T1, recombinant human GR (Homo sapiens, UniProt P04150) (assay: Human Glucocorticoid Receptor (GR) Assay, fluorescence polarization (GRhuFL_FP_v2, GR-binders)).
T1 construct: purchased Panvera/Invitrogen P2812 (kit P2893)
T1 sequence (P04150 1-777): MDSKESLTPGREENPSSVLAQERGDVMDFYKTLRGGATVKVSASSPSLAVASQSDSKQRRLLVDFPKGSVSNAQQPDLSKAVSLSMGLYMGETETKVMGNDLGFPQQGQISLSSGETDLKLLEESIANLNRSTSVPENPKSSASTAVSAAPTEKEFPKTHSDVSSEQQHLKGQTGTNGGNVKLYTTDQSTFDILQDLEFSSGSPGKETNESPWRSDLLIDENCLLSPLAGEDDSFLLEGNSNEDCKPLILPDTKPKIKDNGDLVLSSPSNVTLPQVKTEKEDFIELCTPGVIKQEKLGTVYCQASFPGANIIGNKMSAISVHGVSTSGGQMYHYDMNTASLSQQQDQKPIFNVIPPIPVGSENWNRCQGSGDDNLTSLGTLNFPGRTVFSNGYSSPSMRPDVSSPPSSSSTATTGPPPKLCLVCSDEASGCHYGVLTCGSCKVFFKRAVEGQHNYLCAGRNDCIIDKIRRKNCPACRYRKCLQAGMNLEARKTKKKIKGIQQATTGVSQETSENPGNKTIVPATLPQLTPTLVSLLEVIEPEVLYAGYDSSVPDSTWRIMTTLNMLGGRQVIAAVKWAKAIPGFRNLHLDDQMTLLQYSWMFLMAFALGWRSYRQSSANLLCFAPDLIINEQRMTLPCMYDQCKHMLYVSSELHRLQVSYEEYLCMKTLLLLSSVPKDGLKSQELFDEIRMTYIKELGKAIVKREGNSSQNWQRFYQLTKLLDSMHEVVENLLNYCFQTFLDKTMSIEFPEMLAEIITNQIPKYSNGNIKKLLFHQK
Type: binding
Protocol: Human Glucocorticoid Receptor (GR) Assay
The assay is based on a commercial kit from Panvera/Invitrogen (Part number P2893). The assay technology is fluorescence polarization. […] The GR and Stabilizing Peptide reagents are stored at −70° C. while the GS Red is stored at −20° C. Also included in the kit are 1M DTT (Panvera, Part number P2325, stored at −20° C.) and GR Screening buffer 10× (Panvera, Part number P2814, stored at −70° C. initially but once thawed stored at room temperature). Avoid repeated freeze/thaws for all reagents. The GR Screening buffer 10× comprises 100 mM potassium phosphate, 200 mM sodium molybdate, 1 mM EDTA and 20% DMSO.
0% control was 100% DMSO and 100% control was 10 μM Dexamethasone. Background solution (8 μL; assay buffer 10×, Stabilizing Peptide, DTT and ice cold MQ water) was added to the background wells. GS Red solution (7 μL; assay buffer 10×, Stabilizing Peptide, DTT, GS Red and ice cold water) was added to all wells except background wells. GR solution (7 μL; assay buffer 10×, Stabilizing Peptide, DTT, GR and ice cold water) was added to all wells. The plate was sealed and incubated in a dark at room temperature for 2 hours.

| IC50 [nM] | Compound |
| --- | --- |
| 18 | CCC(CC)n1nc(C)c(S(=O)(=O)N[C@@H](C)COc2cccc3c2cnn3-c2ccc(F)cc2)c1C [Example 46, 1-(1-Ethylpropyl)-N-((1S)-2-{[1-(4-fluorophenyl)-1H-indazol-4-yl]oxy}-1-methylethyl)-3,5-dimethyl-1H-pyrazole-4-sulfonamide] |
| 3.8 | Cc1cccc(-n2ncc3c(NC[C@H](C)NS(=O)(=O)c4c(C)cc(C)cc4C)cccc32)c1 [Example 9, 2,4,6-Trimethyl-N-((1S)-1-methyl-2-{[1-(3-methylphenyl)-1H-indazol-4-yl]amino}ethyl)benzenesulfonamide] |
| 80 | Cc1nn(C(C)(C)C)c(C)c1S(=O)(=O)N[C@@H](C)COc1cccc2c1cnn2-c1cccnc1 [Example 44, 1-tert-Butyl-3,5-dimethyl-N-{(1S)-1-methyl-2-[(1-pyridin-3-yl-1H-indazol-4-yl)oxy]ethyl}-1H-pyrazole-4-sulfonamide] |
| 8 | Cc1cc(C)c(S(=O)(=O)N[C@H](CNc2cccc3c2cnn3-c2ccc(F)cc2)C(C)C)c(C)c1 [Example 35, N-[(1S)-1-({[1-(4-Fluorophenyl)-1H-indazol-4-yl]amino}methyl)-2-methylpropyl]-2,4,6-trimethylbenzenesulfonamide] |
| 51 | Cc1nn(C2CCCC2)c(C)c1S(=O)(=O)N[C@@H](C)COc1cccc2c1cnn2-c1ccc(F)cc1 [Example 48, 1-Cyclopentyl-N-((1S)-2-{[1-(4-fluorophenyl)-1H-indazol-4-yl]oxy}-1-methylethyl)-3,5-dimethyl-1H-pyrazole-4-sulfonamide] |
| 4 | Cc1cc(C)c(S(=O)(=O)N[C@@H](C)CNc2cccc3c2cnn3-c2cccc(F)c2)c(C)c1 [Example 13, N-((1S)-2-{[1-(3-Fluorophenyl)-1H-indazol-4-yl]amino}-1-methylethyl)-2,4,6-trimethylbenzenesulfonamide] |
| 4.7 | Cc1nn(C2CCCC2)c(C)c1S(=O)(=O)N[C@@H](C)CNc1cccc2c1cnn2-c1ccc(C#N)cc1 [Example 30, N-((1S)-2-{[1-(4-Cyanophenyl)-1H-indazol-4-yl]amino}-1-methylethyl)-1-cyclopentyl-3,5-dimethyl-1H-pyrazole-4-sulfonamide] |
| 7 | Cc1cc(C)c(S(=O)(=O)N[C@@H](C)CNc2cccc3c2cnn3C2CCCC2)c(C)c1 [Example 50, N-{(1S)-2-[(1-Cyclopentyl-1H-indazol-4-yl)amino]-1-methylethyl}-2,4,6-trimethylbenzene sulfonamide] |
| 3.9 | Cc1ccc(-n2ncc3c(NC[C@H](C)NS(=O)(=O)c4c(C)cc(C)cc4C)cccc32)cc1 [Example 12, 2,4,6-Trimethyl-N-((1S)-1-methyl-2-{[1-(4-methylphenyl)-1H-indazol-4-yl]amino}ethyl)benzenesulfonamide] |
| 4 | Cc1cc(C)c(S(=O)(=O)N[C@@H](C)CNc2cccc3c2cnn3-c2ccc(F)c(C)c2)c(C)c1 [Example 17, N-((1S)-2-{[1-(4-Fluoro-3-methylphenyl)-1H-indazol-4-yl]amino}-1-methylethyl)-2,4,6-trimethylbenzenesulfonamide] |
| 4.6 | Cc1cc(C)c(S(=O)(=O)N[C@@H](C)CCc2cccc3c2cnn3-c2ccc(F)cc2)c(C)c1 [Example 39, N-{(1S)-3-[1-(4-Fluorophenyl)-1H-indazol-4-yl]-1-methylpropyl}-2,4,6-trimethylbenzenesulfonamide] |
| 10 | Cc1cc(C)c(S(=O)(=O)N[C@@H](C)CCc2cccc3c(-c4ccc(F)cc4)n[nH]c23)c(C)c1 [Example 53, N-{(1S)-3-[3-(4-Fluorophenyl)-1H-indazol-7-yl]-1-methylpropyl}-2,4,6-trimethylbenzenesulfonamide] |
| 23 | COc1ncc(-n2ncc3c(NC[C@H](C)NS(=O)(=O)c4c(C)nn(C5CCCC5)c4C)cccc32)cn1 [Example 28, 1-Cyclopentyl-N-((1S)-2-{[1-(2-methoxypyrimidin-5-yl)-1H-indazol-4-yl]amino}-1-methylethyl)-3,5-dimethyl-1H-pyrazole-4-sulfonamide] |
| 7.1 | Cc1cc(C)c(S(=O)(=O)N[C@@H](C)CNc2cccc3c2cnn3-c2ccnc(F)c2)c(C)c1 [Example 10, N-((1S)-2-{[1-(2-Fluoropyridin-4-yl)-1H-indazol-4-yl]amino}-1-methylethyl)-2,4,6-trimethylbenzenesulfonamide] |
| 3.5 | Cc1cc(C)c(S(=O)(=O)N[C@@H](C)CNc2cccc3c2cnn3-c2ccccc2)c(C)c1 [Example 7, 2,4,6-Trimethyl-N-{(1S)-1-methyl-2-[(1-phenyl-1H-indazol-4-yl)amino]ethyl}benzenesulfonamide] |
| 5.6 | Cc1cc(C)c(S(=O)(=O)N[C@@H](C)CNc2cccc3c2cnn3-c2cccnc2)c(C)c1 [Example 16, 2,4,6-Trimethyl-N-{(1S)-1-methyl-2-[(1-pyridin-3-yl-1H-indazol-4-yl)amino]ethyl}benzenesulfonamide] |
| 5.4 | COc1ccc(-n2ncc3c(NC[C@H](C)NS(=O)(=O)c4c(C)cc(C)cc4C)cccc32)cc1 [Example 5, N-((1S)-2-{[1-(4-Methoxyphenyl)-1H-indazol-4-yl]amino}-1-methylethyl)-2,4,6-trimethylbenzenesulfonamide] |
| 5.7 | Cc1nn(C2CCCC2)c(C)c1S(=O)(=O)N[C@@H](C)CNc1cccc2c1cnn2-c1cncnc1 [Example 29, 1-Cyclopentyl-3,5-dimethyl-N-{(1S)-1-methyl-2-[(1-pyrimidin-5-yl-1H-indazol-4-yl)amino]ethyl}-1H-pyrazole-4-sulfonamide] |
| 6.6 | COc1ccc(-n2ncc3c(NC[C@H](C)NS(=O)(=O)c4c(C)cc(C)cc4C)cccc32)cn1 [Example 11, N-((1S)-2-{[1-(6-Methoxypyridin-3-yl)-1H-indazol-4-yl]amino}-1-methylethyl)-2,4,6-trimethylbenzenesulfonamide] |
| 5300 | Cc1cc(C)c(S(=O)(=O)N[C@@H](C)CNc2ncnc3c2cnn3-c2ccccc2)c(C)c1 [Example 34, 2,4,6-Trimethyl-N-{(1S)-1-methyl-2-[(1-phenyl-1H-pyrazolo[3,4-d]pyrimidin-4-yl)amino]ethyl}benzenesulfonamide] |
| 4.3 | Cc1cc(C)c(S(=O)(=O)N[C@@H](C)CNc2cccc3c2cnn3-c2ccncc2)c(C)c1 [Example 14, 2,4,6-Trimethyl-N-{(1S)-1-methyl-2-[(1-pyridin-4-yl-1H-indazol-4-yl)amino]ethyl}benzenesulfonamide] |
| 8.7 | Cc1cc(C)c(S(=O)(=O)NC[C@@H](C)Nc2cccc3c2cnn3-c2ccc(F)cc2)c(C)c1 [Example 24, N-((2R)-2-{[1-(4-Fluorophenyl)-1H-indazol-4-yl]amino}propyl)-2,4,6-trimethylbenzenesulfonamide] |
| 1.5 | Cc1n[nH]c(C)c1S(=O)(=O)N[C@@H](C)COc1cccc2c1cnn2-c1ccc(F)cc1 [Example 41, N-((1S)-2-{[1-(4-Fluorophenyl)-1H-indazol-4-yl]oxy}-1-methylethyl)-3,5-dimethyl-1H-pyrazole-4-sulfonamide] |
| 790 | Cc1cc(C)c(S(=O)(=O)NC(C)CS(=O)(=O)c2cccc3c2cnn3-c2ccc(F)cc2)c(C)c1 (centres unmarked) [Example 37, N-[2-[1-(4-Fluorophenyl)indazol-4-yl]sulfonyl-1-methyl-ethyl]-2,4,6-trimethyl-benzenesulfonamide] |
| 3.8 | Cc1nn(C2CCCC2)c(C)c1S(=O)(=O)N[C@@H](C)CNc1cccc2c1cnn2-c1ccc(F)cc1 [Example 25] |
| 44 | COc1cncc(-n2ncc3c(NC[C@H](C)NS(=O)(=O)c4c(C)nn(C5CCCC5)c4C)cccc32)c1 [Example 31, 1-Cyclopentyl-N-((1S)-2-{[1-(5-methoxypyridin-3-yl)-1H-indazol-4-yl]amino}-1-methylethyl)-3,5-dimethyl-1H-pyrazole-4-sulfonamide] |
